Measurements published in PMC5589637, “New perspectives of cobalt tris(bipyridine) system: anti-cancer effect and its collateral sensitivity towards multidrug-resistant (MDR) cancers” (Oncotarget, 2017).

Assays:
[1] = tested on: SGC-7901 cisplatin-resistant cancer cells; test: MTT cytotoxicity, cisplatin-resistant SGC-7901; type: cell-based
From the text: (§1) All cells were obtained from the American Type Culture Collection (Rockville, MD, USA) unless otherwise specified. Immortalized wild-type and Atg7-deficient mouse embryonic fibroblasts (MEFs) were kindly provided by Professor Masaaki Komatsu (Juntendo University, School of Medicine, Japan). Taxol-resistant types of MCF-7, HCT-8, A549 cancers cells and cisplatin-resistant SGC7901 cancer cells were purchased from KeyGEN BioTECH, China. Cisplatin-sensitive or –resistant A2780, OV2008 and C13 cancer cells were kindly provided by Prof. Benjamin Tsang (Department of Obstetrics and Gynecology and Department of Cellular and Molecular Medicine, University of Ottawa, Canada). HCT116 p53^+/+ and p53^−/− isogenic human colon cancer cells were kindly provided by Professor Bert Vogelstein (Ludwig Center at Johns Hopkins, Howard Hughes Medical Institute, USA). All media were supplemented with 10% fetal bovine serum and antibiotics penicillin (50 U/ml) and streptomycin (50 μg/ml; Invitrogen, Paisley, Scotland, UK). All cell cultures were incubated at 37°C in a 5% humidified CO2 incubator.
(§2) All tested compounds were dissolved in DMSO at a final concentration of 50 mmol/L and stored at −20°C before use. Cytotoxicity was assessed by using the 3-(4,5-dimethylthiazol-2-yl)-2, 5-diphenyltetrazolium bromide (MTT) (5.0 mg/ml) assay as previously described. Briefly, 4×10^3 cells per well were seeded in 96-well plates before drug treatments. After overnight culture, the cells were then exposed to different concentrations of selected compounds ([…]) for 72 hours. Cells without drug treatment were used as control. Subsequently, MTT (10 μL) solution was added to each well and incubated at 37°C for 4 hours followed by the addition of 100 μL solubilization buffer (10%SDS in 0.01 mol/L HCl) and overnight incubation. A570 nm was then determined in each well on the next day. The percentage of cell viability was calculated using the following formula: Cell viability (%) = Atreated/Acontrol × 100. Data were obtained from three independent experiments.

[2] = Pharmacokinetic study (HPLC-MS of blood samples); type: in vivo; details: male C57BL/6 mice
Description: Pharmacokinetic study of cobalt complex 2 was performed in male C57BL/6 mice by the dosage of 40 mg/kg. The source of mouse and practice of husbandry were the same as described in the methodology section of LLC-1 Xenograft Tumor experiment. Cobalt complex 2 was diluted in the formula (PEG400: H2O: Ethanol = 6:3:1) and administered by intraperitoneal in a volume of 0.005 mL/g bodyweight. After dosing, blood samples were collected to sodium heparin anticoagulant tube at different time points (5, 15, 30 min, and then 1, 2, 4, 8, 12 and 24 hours); 4 mice were used for each time point. Approximately 200 μL of blood was collected via orbital vein from each anesthetized mouse by isoflurane. Plasma was separated by centrifugation at 3000 g for 10 minutes at 4°C. The plasma was protected and stored at −80°C until analyzed by liquid chromatography-mass spectrometry/mass spectrometry (LC-MS/MS) for quantification.
Plasma samples were thawed at room temperature and then vortexed to ensure sample solution homogeneity. Firstly, a 20 μL aliquot of each plasma sample were loaded into 1.5 mL tube, 100 μL acetonitrile was added, vortexed then centrifuged at 13000 rpm for 10 min. the supernatant was collected. The plasma cobalt complex 2 concentrations were quantified using Thermo HPLC Ultimate 3000 system. The compound in plasma samples were analyzed by using the Agilent Zorbax Eclipse Plus C-18 column with a particle size of 1.8 μm. The parameters of the gradient elution program were applied as follows: mobile phase A (0.1% formic acid in water) and mobile phase B acetonitrile: 0–5.5 min, 20% B; 5.5–7 min, 90% B; 7–10 min, 20% B. The column and autosampler temperature were maintained at 40 and 4 °C, respectively. The gas temperature was set 320 °C with flow rate (0.8 mL/min), gases were set at 10 psi for the nebulizer, capillary, 3500 V.

[3] = tested on: Atg7^−/− deficient MEFs; test: MTT cytotoxicity, Atg7 deficient MEFs; type: cell-based, mouse; details: 72 h
From the text: as §1, with “All media were supplemented with 10% fetal bovine serum and antibiotics penicillin (50 U/ml) and streptomycin (50 μg/ml; Invitrogen, Paisley, Scotland, UK). All cell cultures were incubated at 37°C in a 5% humidified CO2 incubator.” left out
All tested compounds were dissolved in DMSO at a final concentration of 50 mmol/L and stored at −20°C before use. Cytotoxicity was assessed by using the 3-(4,5-dimethylthiazol-2-yl)-2, 5-diphenyltetrazolium bromide (MTT) (5.0 mg/ml) assay as previously described. […] A570 nm was then determined in each well on the next day. The percentage of cell viability was calculated using the following formula: Cell viability (%) = Atreated/Acontrol × 100. […]

[4] = tested on: H1299 cell; test: Western blot of cell invasion markers MMP-9 and ICAM-1; type: cell-based, human; details: 0.5 μM
Description: Western blot analysis was carried out following standard methods. Cells were lysed with RIPA lysis buffer with protease and phosphatase inhibitor cocktails. Protein concentrations were determined using the Bio-Rad protein assay (Bio-Rad Laboratories, Inc., Hercules, CA, USA). After electrophoresis, the proteins from SDS/PAGE were electro-transferred to a Hybond enhanced chemiluminescence nitrocellulose membrane (Amersham Biosciences, NJ, USA), which was then blocked with 5% dried milk for 1 hour. After washing, the blot was incubated with the indicated primary antibodies overnight at 4°C. Detection was performed using appropriated HRP-conjugated secondary antibodies for 1 hour at RT followed by chemiluminescence (Invitrogen).

[5] = tested on: H1299 lung cancer cells; test: Cell invasion assay (ECMatrix chamber); type: cell-based, human; details: H1299, 72 h, sub-lethal doses, OD 560 nm
Description: The H1299 cancer cell invasion assay was performed in a Cell Invasion Chamber, a 24-well tissue culture plate with cell culture inserts that contain an 8 μm pore size polycarbonate membrane over a thin layer of dried ECMatrix^TM (CHEMICON). H1299 cells (15000 cells/well) were re-suspended in serum-free medium and incubated in an invasion chamber insert with different concentrations of cobalt complex 2 for 72 hours, while the lower chamber contained medium with 10% FBS. The cells invaded through the ECM layer to the bottom of the polycarbonate membrane were labelled with Cell Stain provided in the kit for 20 min at room temperature. The non-invading cells were gently removed from the interior of the inserts by using a cotton-tipped swab. The number of invaded cells was counted through the microscope and quantified by dissolving stained cells in 10% acetic acid (200 μL/well). The colorimetric reading of the solute mixture was determined by spectrophotometer at OD 560 nm.

[6] = tested on: H1975 (EGFR mutant lung cancer) cells; test: MTT cytotoxicity assay, H1975; type: cell-based; details: 72 h
Description: as §2

Cc1ccnc(-c2cc(C)ccn2)c1.Cc1ccnc(-c2cc(C)ccn2)c1.Cc1ccnc(-c2cc(C)ccn2)c1.F[P-](F)(F)(F)(F)F.F[P-](F)(F)(F)(F)F.F[P-](F)(F)(F)(F)F.[Co+3] [complex 2, [Co^III(4,4’-Me2-bpy)3](PF6)3]
IC50 ([1]; SGC-7901 cisplatin-resistant, MTT, 72 h): 12.6 µM
Resistant Factor, SGC-7901 ([1]; cisplatin-resistant over cisplatin-sensitive IC50, SGC-7901): 1.14
species detected in blood samples by HPLC-MS ([2]; 40 mg/kg intraperitoneal of complex 2, 5 min to 24 hours): neither cobalt complex 2 nor its decomposed species was observed
metabolism after absorption ([2]; 40 mg/kg intraperitoneal, after 2-hour time interval): almost complete metabolism
IC50 [3]: 14 µM
expression of MMP-9 and ICAM-1 [4]: significantly downregulated
cell invasion (absorbance signal of invaded cells) [5]: dose-dependently decrease the absorbance signal
IC50 [6]: 8.84 µM
